Reference: PMC8705538, “Discovery of SARS-CoV-2 Nsp14 and Nsp16 Methyltransferase Inhibitors by High-Throughput Virtual Screening” (Pharmaceuticals, 2021)
Like-named read-outs stand apart in the source and are kept apart here.

Experiments:
[1] = Cytotoxicity, neutral red uptake, 3T3; format: cell-based, murine; conditions: mouse
Protocol: (§1) A549 human non-small cell lung cancer cell line, HepG2 hepatocarcinoma cells, and BALB/c 3T3 clone A31 murine fibroblast cell line for the study were obtained from ATCC (American Type Culture Collection, Manassas, VA, USA). Cells were propagated in DMEM medium (Sigma, D6046, Irvin, UK) supplemented with 1% penicillin (100 U/mL)–streptomycin (100 μg/mL) and 10% foetal bovine serum (Sigma, F7524, St Louis, MO, USA) in case of A549 and HepG2 or 10% calf serum (Sigma, C8056, St Louis, MO, USA) in case of BALB/c 3T3. All cultivations were performed in a humidified 5% CO2 atmosphere at 37 °C.
(§2) The cytotoxicity of the compounds was tested in A549, HepG2, and BALB/c3T3 cell lines by neutral red (NR) uptake assay. A549 and BALB/c3T3 cells were seeded in 96-well plates at a density of 8 × 10^3 cells per well, HepG2 at density 1.2 × 10^4 cells per well. After 24 h incubation, test compounds in a concentration range of 0.8 to 200 μM were added. Cultivation in the presence of test compounds was done for 48 h. Afterwards, the plates were washed with phosphate-buffered saline (PBS) (Sigma, D8537, Irvin, UK), and 25 µg/mL NR solution (Sigma, N2889, Irvin, UK) was added. In case of BALB/c 3T3 cells, NR was diluted in 5% foetal calf serum containing media, while for A549 and HepG2 cells, it was diluted in 5% foetal bovine serum containing media. After 3 h incubation, the plate was washed with PBS, and the NR taken up by viable cells was extracted using desorbing fixative (50% ethanol/1% acetic acid/49% water). Absorbance at 540 nm was measured using a Tecan M200 Infinite Pro microplate reader. Cytotoxicity was expressed as a concentration-dependent reduction of the uptake of NR, compared to the untreated controls, and the IC50 value for each compound was calculated.

[2] = Cytotoxicity, neutral red uptake, HepG2; format: cell-based; conditions: human
Protocol: as §1, §2

[3] = Cytotoxicity, neutral red uptake, A549; format: cell-based; conditions: human
Protocol: as §1, §2

A549 cell culture = assay: Cell permeability testing (LC/MS/MS of cell lysates and media); format: in vitro ADME, human; conditions: for Cell Permeability, 2 × 10^4 Cells/L / Cell Permeability, 4 × 10^4 Cells/L: 24 h; for cell permeability (in words): A549
Protocol: To test cell permeability, each compound was added to A549 cell culture at a concentration of 20 μM and incubated for 24 h. Cells were seeded in 6-well plates at a density of 2 × 10^4 and 4 × 10^4 cells per well at concentrations 1 × 10^4 and 2 × 10^4 cells/mL media for the testing of each compound, each in three replicates. After the incubation, the cell cultivation media and cell lysates were collected. After the removal of media, cells were washed with ice-cold PBS (Sigma, D1408, Irvin, UK) and lysed for 30 min in 500 µL per well ice-cold RIPA buffer (Sigma, R0278, St Louis, MO, USA). Samples were stored at −80 °C until analysis.
The quantitative determination of tested compounds in cell lysates and culture media was performed on a Waters MICROMASS QUATTRO microTM tandem mass spectrometer combined with Acquity UPLC system. Acquity UPLC BEH C8 (2.1 × 50 mm × 1.7 μm) column was used at a flow rate of 0.25 mL/min. The column oven was set at 30 °C, and the sample injection volume was 5 μL. The mobile phase consisted of a combination of A (0.1% formic acid in water) and B (acetonitrile). The gradient elution program from 5% B to 98% B in 5 min was applied for analysis. Tandem mass spectrometer in positive electrospray mode was used for quantification. The TargetLynx software was applied to process LC/MS/MS data. Samples for LC/MS/MS analysis were prepared as follows: 200 μL of acetonitrile/methanol mixture (3:1 v/v) was add to 200 μL of each cell lysate and culture media sample. Then, the samples were centrifuged (10,000 rpm, 10 min), and the supernatants (300 μL) were removed from each sample and placed in vials for LC/MS/MS analysis. Calibration curves for all analytes were produced by analysis of standard solutions over a concentration range of 0.2 to 20 μM.

SARS-CoV-2 nsp14 = SARS-CoV-2 nsp14 (Severe acute respiratory syndrome coronavirus 2, UniProt P0DTD1); assay: biochemical; conditions: for Ligand Efficiency (LE) nsp14: estimated from IC50 values; for inhibition at 100 µM: read-out: Percent inhibition at 100 μM, nsp14
SARS-CoV-2 nsp16/nsp10 = SARS-CoV-2 nsp16/nsp10 (Severe acute respiratory syndrome coronavirus 2, UniProt P0DTD1); assay: biochemical; conditions: for Ligand Efficiency (LE) nsp16: estimated from IC50 values; for inhibition at 100 µM: read-out: Percent inhibition at 100 μM, nsp16
[4] = biological target: T1, human Glycine N-Methyltransferase (GNMT) (Homo sapiens, UniProt Q14749); assay: HTRF methyltransferase selectivity assay, human GNMT; format: biochemical; conditions: for Ligand Efficiency (LE) Human (hMtase): estimated from IC50 values; for inhibition at 100 µM: read-out: Percent inhibition at 100 μM, Human
T1 construct: purchased MyBioSource MBS636160
T1 sequence (Q14749 1-295): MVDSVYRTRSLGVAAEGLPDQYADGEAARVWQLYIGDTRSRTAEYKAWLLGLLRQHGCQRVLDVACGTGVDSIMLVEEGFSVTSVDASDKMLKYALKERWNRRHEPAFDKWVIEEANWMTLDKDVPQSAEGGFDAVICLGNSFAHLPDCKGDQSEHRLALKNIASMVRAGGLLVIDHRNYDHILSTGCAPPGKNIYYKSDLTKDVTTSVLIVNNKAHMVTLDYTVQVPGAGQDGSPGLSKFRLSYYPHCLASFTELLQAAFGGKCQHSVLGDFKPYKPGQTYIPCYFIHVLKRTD

[5] = system: 3T3, A549, and HepG2 cell lines; assay: Cytotoxicity, summary statements over the three cell lines; format: cell-based; conditions: 3T3, A549, HepG2
Protocol: as §2

[6] = 48 h, neutral red uptake, read-out: Cytotoxicity (CC50) 3T3
[7] = 48 h, neutral red uptake, read-out: Cytotoxicity (CC50) HepG2
[8] = 48 h, neutral red uptake, read-out: Cytotoxicity (CC50) A549
[9] = A549, compound 20 μM, LOQ 0.2 μM or 1%
[10] = HTRF, SAM 10 µM, GpppG 4 µM, read-out: IC50 nsp14
[11] = HTRF, nsp16/nsp10, SAM 10 µM, m7GpppA-RNA, read-out: IC50 nsp16
[12] = HTRF, SAM 10 µM, glycine 5 mM, read-out: IC50 Human (hMtase, human glycine N-methyltransferase)

SMILES | CC50 at 48 h [1, 6] | CC50 at 48 h [2, 7] | CC50 at 48 h [3, 8] | Cell Permeability, 2 × 10^4 Cells/L (A549 cell culture; [9]) | Cell Permeability, 4 × 10^4 Cells/L (A549 cell culture; [9]) | IC50 (SARS-CoV-2 nsp14; [10]) | Ligand Efficiency (LE) nsp14 (SARS-CoV-2 nsp14) | Ligand Efficiency (LE) nsp16 (SARS-CoV-2 nsp16/nsp10) | IC50 [4, 12] | Ligand Efficiency (LE) Human (hMtase) [4] | CC50 at 48 h [1] | CC50 at 48 h [2] | CC50 at 48 h [3] | Cell Permeability, 2 × 10^4 Cells/L (A549 cell culture; human, 20 μM) | Cell Permeability, 4 × 10^4 Cells/L (A549 cell culture; human, 20 μM) | IC50 (SARS-CoV-2 nsp14) | inhibition at 100 µM (SARS-CoV-2 nsp14) | IC50 (SARS-CoV-2 nsp16/nsp10) | inhibition at 100 µM (SARS-CoV-2 nsp16/nsp10) | IC50 [4] | other results
Nc1ncnc2c1ncn2[C@@H]1O[C@H](C[C@@H](N)CC[C@H](N)C(=O)O)[C@@H](O)[C@H]1O [Sinefungin, reference compound] | 99.2 µM | > 100 µM | 72.9 µM | <LOD | <LOD |  |  |  |  |  |  |  |  |  |  |  |  |  |  |  | 
CCNC(=O)NCCSC[C@H]1O[C@@H](n2cnc3c(N)ncnc32)[C@H](O)[C@@H]1O [ZINC473112262] |  |  |  |  |  | 3.1 µM | 0.28 kcal/mol | 0.28 kcal/mol | 5.8 µM | 0.26 kcal/mol | > 100 µM | > 100 µM | > 100 µM | 0.3% | 0.3% |  |  |  |  |  | IC50 (SARS-CoV-2 nsp16/nsp10; [11]): 2.46 µM
O=C(CCCn1cncn1)N1CCCC(c2nc3ccccc3s2)C1 (stereo not shown) [ZINC23398144] | > 100 µM | > 100 µM | > 100 µM | 0.7% | 0.6% |  | 0.23 kcal/mol | 0.21 kcal/mol |  | 0.20 kcal/mol |  |  |  |  |  | 77 ± 3 µM | 57 ± 8% | 197 ± 9 µM | 39 ± 7% | 315 ± 5 µM | inhibition at 100 µM [4]: 21 ± 2%; cell permeability (in words) (A549 cell culture): low level of cell permeability; cytotoxicity (in words) [5]: no measurable cytotoxicity
CSC[C@H]1O[C@@H](n2cnc3c(N)ncnc32)[C@H](O)[C@@H]1O [ZINC4228245] |  |  |  |  |  | 1.4 µM | 0.40 kcal/mol | 0.41 kcal/mol | 1.8 µM | 0.39 kcal/mol | > 200 µM | > 200 µM | > 200 µM | 0.7% | 0.8% |  |  | 1.02 µM |  |  | 
Cc1ccc(S(=O)(=O)OC[C@H]2O[C@@H](n3cnc4c(N)ncnc43)[C@H](O)[C@@H]2O)cc1 [ZINC3861767] |  |  |  |  |  | 1.5 µM | 0.27 kcal/mol | 0.28 kcal/mol | 2.8 µM | 0.26 kcal/mol | > 200 µM | > 200 µM | > 200 µM | 2.2% | 0.5% |  |  |  |  |  | IC50 (SARS-CoV-2 nsp16/nsp10; [11]): 1.14 µM
O=C(Cn1c(=O)[nH]c2c(-c3ccccc3)c[nH]c2c1=O)NCc1cccnc1 [ZINC33037945] | > 100 µM | > 100 µM | > 100 µM | 17.9% | 30.8% |  | 0.19 kcal/mol |  |  | 0.19 kcal/mol |  |  |  |  |  | 106 ± 5 µM | 56 ± 5% |  | -8 ± 6% | 125 ± 6 µM | IC50 nsp16 (SARS-CoV-2 nsp16/nsp10; HTRF, nsp16/nsp10, SAM 10 µM, m7GpppA-RNA): inactive; inhibition at 100 µM [4]: 53 ± 8%; cell permeability (in words) (A549 cell culture): good cell permeability; cytotoxicity (in words) [5]: no measurable cytotoxicity
O=C(Cc1csc(SCC(=O)c2ccccc2)n1)Nc1cccc2nsnc12 [ZINC38661771] | 116 µM | 93.8 µM | 97 µM | <LOQ | <LOQ |  | 0.19 kcal/mol | 0.21 kcal/mol |  | 0.21 kcal/mol |  |  |  |  |  | 118 ± 4 µM | 58 ± 7% | 51 ± 2 µM | 69 ± 8% | 58 ± 3 µM | inhibition at 100 µM [4]: 63 ± 5%; cell permeability (in words) (A549 cell culture): low level of cell permeability; concentration at which cytotoxicity was shown [5]: ≈ 100 μM
